Source: patent US6511592B1, “Biosensor for pentachlorophenol” (ISIS Innovation Limited, priority 1998, dated 2003)

Experiments:
[1] = target: T1, PCPH (Sphingobium chlorophenolicum, UniProt P42535); experiment: Substrate range of PCPH, oxidation determined by gas chromatography; format: biochemical, Flavobacterum sp. (ATCC 53874); parameters: made in house; host or cells: E. coli strain DH5a (tac promoter vector)
Excerpt: Samples from the environment contain many other compounds which may be substrates for PCPH and therefore interfere with PCP biosensing. The substrate range of the PCPH enzyme was therefore investigated. The compounds tested as possible substrates were toluene, biphenyl, phenylcyclohexane, 1-phenylcyclohexene, diphenylmethane, bibenzyl and hexadecane, included as a model long-chain alkane.

[2] = target: T2, pentachlorophenol hydroxylase (PCPH) (Sphingobium chlorophenolicum, UniProt P42535); details: earlier investigation of the substrate range (Orser and co-workers); cited from earlier work
T2 sequence (P42535 2-538): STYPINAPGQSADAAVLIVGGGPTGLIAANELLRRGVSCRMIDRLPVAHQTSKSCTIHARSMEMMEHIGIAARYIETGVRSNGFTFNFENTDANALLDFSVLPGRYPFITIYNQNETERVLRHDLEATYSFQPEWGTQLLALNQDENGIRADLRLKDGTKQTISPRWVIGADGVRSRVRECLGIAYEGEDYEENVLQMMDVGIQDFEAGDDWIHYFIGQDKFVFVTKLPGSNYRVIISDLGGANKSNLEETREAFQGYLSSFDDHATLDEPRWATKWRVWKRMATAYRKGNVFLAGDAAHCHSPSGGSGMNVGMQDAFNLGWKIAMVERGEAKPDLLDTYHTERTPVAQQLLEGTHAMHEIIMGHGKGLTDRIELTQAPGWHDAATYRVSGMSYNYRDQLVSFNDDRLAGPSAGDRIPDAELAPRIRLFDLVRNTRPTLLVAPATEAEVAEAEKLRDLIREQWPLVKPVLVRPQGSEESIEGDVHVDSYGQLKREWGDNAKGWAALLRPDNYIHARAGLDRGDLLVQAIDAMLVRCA

[3] = target: T1, PCPH; experiment: PCP concentration-dependent catalytic current, immobilised PCPH electrode
[4] = test system: PCPH; details: -800 mV, aerobic, after 30 mins; cyclic voltammetry and gas chromatography of the organic extract

Compound	oxidised by PCPH (substrate or not) [1]	substrate of PCPH (oxidised / attacked) [2]	other results
C1=C(c2ccccc2)CCCC1 [1-phenylcyclohexene]	None of the compounds except bibenzyl was oxidised by PCPH		
Oc1cccc(Cl)c1Cl [2,3-dichlorophenol]		poor substrate	
Oc1c(Cl)c(Cl)c(Cl)c(Cl)c1Cl [PCP, pentachlorophenol]		oxidised by PCPH	linear range of concentration dependence of the catalytic current ([3]; PCPH 87 μM in the solution evaporated on the electrode, FIG. 1): ca. 8 μM; linear range of concentration dependence of the catalytic current ([3]; PCPH 196 μM in the solution evaporated on the electrode, FIG. 2): ca. 25 μM; product of electrochemically driven oxidation by PCPH [4]: showed the presence of TeCH
c1ccccc1 [benzene]		not substrates	
c1ccc(CCc2ccccc2)cc1 [bibenzyl]	a very small amount of product was detected		
c1ccc(-c2ccccc2)cc1 [biphenyl]	None of the compounds except bibenzyl was oxidised by PCPH		
c1ccc(Cc2ccccc2)cc1 [diphenylmethane]	None of the compounds except bibenzyl was oxidised by PCPH		
CCCCCCCCCCCCCCCC [hexadecane]	None of the compounds except bibenzyl was oxidised by PCPH		
Clc1cc(Cl)c(Cl)c(Cl)c1Cl [pentachlorobenzene]		not	
c1ccc(C2CCCCC2)cc1 [phenylcyclohexane]	None of the compounds except bibenzyl was oxidised by PCPH		
Cc1ccccc1 [toluene]	None of the compounds except bibenzyl was oxidised by PCPH		
